The test concerns the target T1, Adenosine deaminase (Bos taurus, UniProt P56658).
T1 sequence (P56658 whole entry): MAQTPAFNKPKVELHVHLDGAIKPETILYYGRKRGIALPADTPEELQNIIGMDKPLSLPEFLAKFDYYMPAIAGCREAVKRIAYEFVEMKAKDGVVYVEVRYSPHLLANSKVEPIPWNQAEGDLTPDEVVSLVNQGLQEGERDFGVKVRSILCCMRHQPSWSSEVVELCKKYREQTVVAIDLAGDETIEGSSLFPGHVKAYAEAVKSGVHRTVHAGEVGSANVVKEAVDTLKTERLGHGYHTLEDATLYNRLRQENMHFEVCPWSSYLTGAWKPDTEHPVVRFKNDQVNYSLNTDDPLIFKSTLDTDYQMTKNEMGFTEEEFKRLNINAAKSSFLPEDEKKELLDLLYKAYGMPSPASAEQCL
Nature of the test: Tested for binding affinity against calf intestinal Adenosine Deaminase (ADA).
As a reminder, the Ki is the dissociation constant of the complex between target and ligand, obtained from inhibition or displacement. A higher Ki goes with lower affinity. Turning to `CCCCCC[C@H]([C@H](C)O)[N+]1([O-])C(=O)Nc2c(N)ncnc21` (some centres undefined), the affinity corresponds to a Ki of 15.8 nM.
The figure for `CCCCCC[C@H]([C@H](C)O)[N+]1([O-])C=Nc2c(N)ncnc21` (some centres undefined) is 3.8 nM; for `CCCCCC[C@H]([C@H](C)O)n1cnc2c(N)ncnc21` [(+)-EHNA] it is 0.82 nM; for `CCCCCC[C@H]([C@H](C)O)n1c(O)nc2c(N)ncnc21` it is 6.4 nM.

Source of the values: ChEMBL document CHEMBL1127396, “Adenosine deaminase inhibitors. Synthesis and biological evaluation of putative metabolites of (+)-erythro-9-(2S-hydroxy-3R-nonyl)adenine” (J Med Chem, 1994).
